The values that follow come from ChEMBL document CHEMBL1123633, “Cardiotonic agents. 8. Selective inhibitors of adenosine 3',5'-cyclic phosphate phosphodiesterase III. Elaboration of a five-point model for positive inotropic activity” (J Med Chem, 1987).

One assay concerns the target Phosphodiesterase 3 (Homo sapiens, UniProt Q14432+Q13370). Nature of the assay: Inhibition of cAMP PDE III enzyme. Type of assay: protein assay, Cavia porcellus.
Another assay has as its system Canis familiaris. Nature of the assay: 50% increase in myocardial contractility (dP/dt max) in anesthetized dogs on intravenous dose. It counts as functional. The following applies: Canis lupus familiaris, Myocardium.
The target of assay [1] is T1, Phosphodiesterase 1 (Homo sapiens, UniProt P54750+Q01064+Q14123). Nature of the assay: Inhibition cGMP PDE I enzyme. Type of assay: protein assay, Cavia porcellus.
Assay [2] addresses T1, Phosphodiesterase 1. Nature of the assay: Inhibition of cAMP PDE I enzyme. It counts as protein assay, Cavia porcellus.
Assay [3] has as its target T2, cGMP-dependent 3',5'-cyclic phosphodiesterase (Homo sapiens, UniProt O00408). As to the kind of experiment: Inhibition of cGMP PDE II enzyme. The arrangement: species or system Cavia porcellus.
Assay [4] concerns the target T2, cGMP-dependent 3',5'-cyclic phosphodiesterase. Nature of the assay: Inhibition of cAMP PDE II enzyme. The arrangement: species or system Cavia porcellus.

T2 sequence (O00408 whole entry): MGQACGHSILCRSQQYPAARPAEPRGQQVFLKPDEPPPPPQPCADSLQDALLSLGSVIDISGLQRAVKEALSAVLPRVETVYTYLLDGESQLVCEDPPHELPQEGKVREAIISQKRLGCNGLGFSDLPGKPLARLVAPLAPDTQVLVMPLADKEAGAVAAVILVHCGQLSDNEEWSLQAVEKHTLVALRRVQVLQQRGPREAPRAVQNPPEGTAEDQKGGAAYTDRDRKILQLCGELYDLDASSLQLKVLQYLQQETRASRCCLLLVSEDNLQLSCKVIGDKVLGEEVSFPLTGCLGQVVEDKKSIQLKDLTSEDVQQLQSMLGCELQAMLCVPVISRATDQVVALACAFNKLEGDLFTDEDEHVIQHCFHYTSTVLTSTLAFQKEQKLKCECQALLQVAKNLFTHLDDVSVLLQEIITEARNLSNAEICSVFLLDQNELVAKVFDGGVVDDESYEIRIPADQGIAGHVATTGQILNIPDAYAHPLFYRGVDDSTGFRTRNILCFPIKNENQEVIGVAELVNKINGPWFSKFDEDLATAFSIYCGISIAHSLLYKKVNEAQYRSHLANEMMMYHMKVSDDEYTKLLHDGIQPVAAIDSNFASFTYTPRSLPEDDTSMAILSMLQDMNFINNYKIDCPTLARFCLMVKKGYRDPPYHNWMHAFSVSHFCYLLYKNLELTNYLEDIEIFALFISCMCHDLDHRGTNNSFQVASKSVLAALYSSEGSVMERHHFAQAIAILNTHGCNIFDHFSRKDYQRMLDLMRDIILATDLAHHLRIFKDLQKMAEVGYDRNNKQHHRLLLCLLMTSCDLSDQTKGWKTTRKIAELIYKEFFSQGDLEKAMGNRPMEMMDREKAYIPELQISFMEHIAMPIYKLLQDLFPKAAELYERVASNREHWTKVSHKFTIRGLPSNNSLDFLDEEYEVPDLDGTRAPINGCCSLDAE

As usually defined, the IC50 is the concentration needed to halve the response being measured. Lower therefore signals greater potency. `CC1CC(=O)NN=C1c1ccc2c(c1)CCC(=O)N2C` (stereo unspecified) registered an IC50 against Phosphodiesterase 3 of 0.12 µM.
Usually ED50 stands for the midpoint of the dose-response relation. Lower therefore signals an effect at a small dose. In the assay with Canis familiaris, `O=C1CC2Cc3cc(-n4ccnc4)ccc3C2=NN1` (stereo unspecified) displayed an ED50 of 0.023 mg/kg.
For the compound `O=C1CCC(c2cccc(-n3ccnc3)c2)=NN1`, the IC50 at Phosphodiesterase 1 [1] was over 1000 µM.
Take `O=C1CC2Cc3cc(-n4cnc5c4CCCC5)ccc3C2=NN1` (stereo unspecified): the 50% effect level in the assay with Canis familiaris (ED50) was put at a dose of 0.05 mg/kg. Further, the IC50 against Phosphodiesterase 3 came to 1.2 µM.
The compound `CC1=C(c2ccc(-n3ccnc3)cc2)CC(C#N)C(=O)N1` (stereo unspecified) had an ED50 in the assay with Canis familiaris of 0.01 mg/kg. The IC50 came to 39 µM against Phosphodiesterase 1 [2], 130 µM at Phosphodiesterase 1 [1], 120 µM in assay [3] and 43 µM in assay [4].
`CSc1ccc(C(=O)c2[nH]c(=O)[nH]c2C)cc1` [ENOXIMONE] yielded an ED50 in the assay on Canis familiaris of 0.28 mg/kg.
As to `Nc1cc(-c2ccncc2)c[nH]c1=O` [INAMRINONE], the ED50 with Canis familiaris is 0.39 mg/kg. For the same compound, the IC50 against Phosphodiesterase 1 [2] and against Phosphodiesterase 1 [1] was over 1000 µM throughout.
In the assay on Canis familiaris, `Cc1[nH]c(=O)c(C#N)cc1-c1ccncc1` [MILRINONE] showed an ED50 of 0.04 mg/kg.
Still for that read-out and setting: the result for `CCc1[nH]c(=O)[nH]c1C(=O)c1ccncc1` [PIROXIMONE] reads 0.1 mg/kg.
